In brackets after ≈: the same amount, converted by molar mass. Read-outs that look alike come from different tables or passages of the source. Blank lines part the entries; values can stand above or below the compound they belong to.
Columns and labels:
[1] = biological target: gill V(H+)-ATPase; assay type: biochemical, Macrobrachium amazonicum; conditions: read-out: constant enzyme inhibitor, 25 °C
[2] = system: thermal and mechanical sensitivities; RS and NOx levels; assay type: in vivo, Swiss mice; conditions: 1 mg kg-1, intragastric route
[3] = system: glycated human erythrocyte; assay type: cell-based
[4] = system: K562; assay type: cell-based
[5] = system: C. neoformans (ATCC H99); assay: microbe, parasite or virus in culture; assay type: cell-based; conditions: Cryptococcus neoformans
[6] = system: MV released from growth-plate femurs chondrocytes; assay type: biochemical, chicken
[7] = 2 mg/ml
[8] = biological target: rat serum albumin (RSA) (Rattus norvegicus, UniProt P02770); assay type: binding; conditions: interaction density function method; two cooperative sites
[9] = system: K562 cell line
[10] = biological target: α-synuclein (Homo sapiens, UniProt P37840); assay type: cell-based, Saccharomyces cerevisiae; conditions: 0.1 mM, without fermentation
[11] = system: learning and memory behavior; assay type: in vivo, Swiss mice; conditions: 10mg/kg, intragastrically
[12] = system: CE-AρBza serine proteases; assay type: biochemical, Canavalia ensiformis
[13] = system: paw edema; conditions: in vivo
[14] = system: K562 cells; assay type: cell-based
[15] = system: LUCENA cells; assay type: cell-based
[16] = biological target: TRPV1 channel heterologously expressed in HEK293 cells (Homo sapiens, UniProt Q8NER1); assay: cell-based; conditions: HEK293, read-out: % inhibition of capsaicin-induced TRPV1 currents
[17] = system: Leishmania braziliensis old yellow enzyme (LbOYE); assay type: biochemical
[18] = system: Drosophila melanogaster; conditions: 48 hours
[19] = system: inflammation, nociception and oxidative stress; conditions: mouse, in vivo
[20] = biological target: Ca2+-dependent BK channel (Homo sapiens, UniProt Q12791); assay type: cell-based
[21] = system: IGR39 cells; assay type: cell-based
[22] = system: S. saprophyticus; assay type: cell-based
[23] = system: oral streptococci biofilm; assay type: cell-based, Streptococcus; conditions: all species
[24] = biological target: dihydroorotate dehydrogenase from Schistosoma mansoni (SmDHODH) (Schistosoma mansoni, UniProt G4VFD7)
Chain of dihydroorotate dehydrogenase from Schistosoma mansoni (SmDHODH) (G4VFD7 23-379 limits assumed): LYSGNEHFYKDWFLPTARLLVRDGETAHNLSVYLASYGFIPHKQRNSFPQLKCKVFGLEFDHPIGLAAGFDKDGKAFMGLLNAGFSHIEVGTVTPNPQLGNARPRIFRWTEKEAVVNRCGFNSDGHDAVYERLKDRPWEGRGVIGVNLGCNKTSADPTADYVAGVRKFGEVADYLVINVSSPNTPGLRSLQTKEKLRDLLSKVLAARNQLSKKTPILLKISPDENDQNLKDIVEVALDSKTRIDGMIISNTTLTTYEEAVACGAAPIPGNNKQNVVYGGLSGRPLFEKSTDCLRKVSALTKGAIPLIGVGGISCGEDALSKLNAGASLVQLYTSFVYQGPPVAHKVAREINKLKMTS

Chain of TRPV1 channel heterologously expressed in HEK293 cells (Q8NER1 whole entry): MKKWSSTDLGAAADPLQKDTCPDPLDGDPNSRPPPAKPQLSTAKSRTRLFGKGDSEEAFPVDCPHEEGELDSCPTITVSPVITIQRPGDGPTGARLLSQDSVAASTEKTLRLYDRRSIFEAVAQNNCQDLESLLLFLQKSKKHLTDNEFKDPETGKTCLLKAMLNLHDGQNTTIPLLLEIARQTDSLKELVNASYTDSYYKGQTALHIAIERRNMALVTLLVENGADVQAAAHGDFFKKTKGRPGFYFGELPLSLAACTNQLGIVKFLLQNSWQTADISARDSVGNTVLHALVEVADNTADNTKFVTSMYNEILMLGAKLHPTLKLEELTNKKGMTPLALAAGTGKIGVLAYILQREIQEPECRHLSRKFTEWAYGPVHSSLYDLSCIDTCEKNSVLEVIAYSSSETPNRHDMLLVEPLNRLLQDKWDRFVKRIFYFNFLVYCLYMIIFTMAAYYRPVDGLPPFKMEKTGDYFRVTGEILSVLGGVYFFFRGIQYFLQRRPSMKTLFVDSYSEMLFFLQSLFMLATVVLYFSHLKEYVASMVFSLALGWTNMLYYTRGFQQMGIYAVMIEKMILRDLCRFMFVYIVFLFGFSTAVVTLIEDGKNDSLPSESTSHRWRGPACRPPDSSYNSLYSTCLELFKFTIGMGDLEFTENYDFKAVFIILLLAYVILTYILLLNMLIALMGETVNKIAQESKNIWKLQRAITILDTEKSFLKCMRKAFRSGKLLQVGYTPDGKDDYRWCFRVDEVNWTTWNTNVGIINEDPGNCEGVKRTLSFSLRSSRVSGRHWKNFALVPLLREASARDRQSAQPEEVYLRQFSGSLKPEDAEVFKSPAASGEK
Chain of Ca2+-dependent BK channel (Q12791 whole entry): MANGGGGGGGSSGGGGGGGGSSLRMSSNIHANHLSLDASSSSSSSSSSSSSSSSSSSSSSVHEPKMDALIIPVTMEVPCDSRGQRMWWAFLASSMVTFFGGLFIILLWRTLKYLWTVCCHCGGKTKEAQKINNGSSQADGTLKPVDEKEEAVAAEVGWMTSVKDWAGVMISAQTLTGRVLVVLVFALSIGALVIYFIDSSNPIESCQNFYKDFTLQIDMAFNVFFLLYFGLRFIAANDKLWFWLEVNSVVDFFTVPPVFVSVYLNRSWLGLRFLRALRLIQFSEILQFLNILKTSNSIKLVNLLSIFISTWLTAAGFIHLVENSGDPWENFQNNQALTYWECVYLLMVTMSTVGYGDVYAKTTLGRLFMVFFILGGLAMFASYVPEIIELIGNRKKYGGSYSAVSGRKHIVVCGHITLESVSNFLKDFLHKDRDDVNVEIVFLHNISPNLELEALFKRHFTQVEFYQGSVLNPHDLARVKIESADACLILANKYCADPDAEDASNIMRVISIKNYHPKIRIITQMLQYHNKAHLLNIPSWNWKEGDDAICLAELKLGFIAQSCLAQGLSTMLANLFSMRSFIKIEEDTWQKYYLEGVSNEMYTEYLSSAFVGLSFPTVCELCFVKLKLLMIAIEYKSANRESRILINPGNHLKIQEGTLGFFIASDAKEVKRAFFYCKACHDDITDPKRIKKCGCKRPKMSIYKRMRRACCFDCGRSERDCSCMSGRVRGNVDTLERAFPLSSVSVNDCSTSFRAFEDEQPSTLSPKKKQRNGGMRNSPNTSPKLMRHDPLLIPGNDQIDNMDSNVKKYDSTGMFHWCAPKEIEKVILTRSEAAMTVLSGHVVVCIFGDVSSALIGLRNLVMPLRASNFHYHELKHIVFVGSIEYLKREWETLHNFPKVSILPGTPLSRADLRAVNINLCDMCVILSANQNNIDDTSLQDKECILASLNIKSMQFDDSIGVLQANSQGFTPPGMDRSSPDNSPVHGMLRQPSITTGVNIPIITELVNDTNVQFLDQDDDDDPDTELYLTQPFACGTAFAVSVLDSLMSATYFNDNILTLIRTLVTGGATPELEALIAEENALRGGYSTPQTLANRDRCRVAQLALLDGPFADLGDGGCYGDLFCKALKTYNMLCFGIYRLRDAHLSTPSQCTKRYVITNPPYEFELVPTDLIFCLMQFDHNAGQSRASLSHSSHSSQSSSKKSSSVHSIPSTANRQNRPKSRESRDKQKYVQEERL
Chain of rat serum albumin (RSA) (P02770 25-608): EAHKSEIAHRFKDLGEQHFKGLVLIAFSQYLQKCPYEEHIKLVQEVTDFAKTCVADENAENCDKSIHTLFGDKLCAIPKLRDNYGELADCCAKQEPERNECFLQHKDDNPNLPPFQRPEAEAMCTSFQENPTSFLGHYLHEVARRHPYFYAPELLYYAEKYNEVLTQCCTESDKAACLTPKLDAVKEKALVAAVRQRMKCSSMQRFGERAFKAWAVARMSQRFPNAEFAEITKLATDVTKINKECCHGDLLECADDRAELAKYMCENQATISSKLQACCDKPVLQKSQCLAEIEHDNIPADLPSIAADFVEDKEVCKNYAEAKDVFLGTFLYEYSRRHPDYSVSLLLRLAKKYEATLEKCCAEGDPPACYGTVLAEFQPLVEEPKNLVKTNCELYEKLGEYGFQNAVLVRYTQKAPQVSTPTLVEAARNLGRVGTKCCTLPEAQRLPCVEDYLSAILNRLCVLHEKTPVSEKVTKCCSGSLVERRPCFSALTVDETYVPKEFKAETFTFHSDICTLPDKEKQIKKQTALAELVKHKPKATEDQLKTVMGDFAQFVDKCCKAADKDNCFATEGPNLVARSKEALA

Compound: CO/C1=C\C(C)=C\[C@@H](C)[C@@H](O)[C@@H](C)C/C(C)=C/C=C/[C@H](OC)[C@@H]([C@@H](C)[C@@H](O)[C@H](C)C2(O)C[C@@H](O)[C@H](C)[C@@H](C(C)C)O2)OC1=O (some centres unmarked) [bafilomycin]
Ki ([1]; Grande river population): 21.2 ± 1.3 nM | Ki ([1]; Tietê river population): 35.1 ± 1.1 nM

Compound: Clc1ccc2c([Se]c3ccccc3)ccnc2c1 [4-PSQ, 7-Chloro-4-(phenylselanyl) quinoline]
hypersensitivity [2]: reversed hypersensitivity induced by OXA and aging | RS and NOx levels ([2]; both ages): reduced the RS and NOx levels

Compound: CC(=O)O[C@H]1C[C@@H]2CC[C@@H]3[C@H](CC[C@@]4(C)[C@H]3C[C@H]([N+]3(C)CCCCC3)[C@@H]4OC(C)=O)[C@@]2(C)C[C@@H]1N1CCCCC1 [V, vecuronium]
surface viscosity (η) [3]: increase

Compound: NC(=O)NC1NC(=O)NC1=O (centres unmarked) [allantoin]
death caused by cisplatin [4]: reduction

MIC [5]: 0.047 to 3.12 µM (≈ 0.0125 to 0.829 µg/mL)
Compound: CCCSc1ccc2nc(NC(=O)OC)[nH]c2c1 [Albendazole]

Compound: C[C@@H]1O[C@@H](O[C@H]2C[C@@H](O)[C@]3(CO)[C@H]4[C@H](O)C[C@]5(C)[C@@H](C6=CC(=O)OC6)CC[C@]5(O)[C@@H]4CC[C@]3(O)C2)[C@H](O)[C@H](O)[C@H]1O [ouabain]
MV activity in the presence of inhibitor ([6]; 31P-NMR and colorimetric techniques): ~95%

degradation [7]: highly sucesptible to degradation
Compound: CC1=C(C(=O)O)N2C(=O)[C@@H](NC(=O)[C@H](N)c3ccccc3)[C@H]2SC1 [Cephalexin]

Compound: CC(C)c1cccc(C(C)C)c1O [P, propofol]
deformability index (DI) [3]: decreases | erythrocyte elastic modulus (μ) [3]: significant increase

binding constants [8]: moderate binding constants
Compound: Piperlongumine [PPL]

Compound: CN(C)C(=N)N=C(N)N [metformin]
interaction with cisplatin [9]: synergism

MIC [5]: 0.047 to 3.12 µM (≈ 0.0147 to 0.979 µg/mL)
Compound: COC(=O)Nc1nc2cc(C(=O)c3ccc(F)cc3)ccc2[nH]1 [flubendazole]

MIC [5]: 0.047 to 3.12 µM (≈ 0.0141 to 0.935 µg/mL)
Compound: COC(=O)Nc1nc2ccc(Sc3ccccc3)cc2[nH]1 [fenbendazole]

protein aggregation [10]: did not inhibit
Compound: O=C(/C=C/c1ccc(O)c(O)c1)OCCc1ccccc1 [CAPE, phenethyl ester of caffeic acid]

Compound: COc1ccc(Sc2ccc3nsnc3c2)cc1 [MTDZ, 5-((4-methoxyphenyl)thio)benzo[c][1,2,5]thiadiazole]
behavioral changes caused by SCO [11]: attenuated the behavioral changes caused by SCO

Compound: N=C(N)c1ccccc1 [benzamidine]
inhibition of CE-AρBza ([12]; BTEE as substrate): 100% | inhibition of CE-AρBza ([12]; L-TAME as substrate): 77%

Compound: Rhodium chloride [RhCl3]
paw edema [13]: able to reduce paw edema

Compound: sodium selenite [Na2SeO3]
proliferation [14]: significant reduction | mitochondrial membrane potential (JC-1) ([14]; 24 hours): significant reduction for all concentration | cell viability (MTT) ([14]; 48 hours): significant reduced only in 100 μM or 1000 μM | reduction in cell number ([15]; 1000 μM, 48 hours): 66% | mitochondrial membrane potential (JC-1) ([15]; 24 hours): only at concentrations of 100 μM and 1000 μM

inhibition at 0.1 µM [16]: 62 ± 8%
Compound: CC(C)(O)c1ccccc1CC[C@@H](SCC1(CC(=O)O)CC1)c1cccc(/C=C/c2ccc3ccc(Cl)cc3n2)c1 [Montelukast]

significant inhibition of LbOYE activity [17]: did not show significant inhibition
Compound: CC(C)c1cc2c(c(O)c1O)C[C@@]13CCCC(C)(C)[C@@H]1C[C@@H]2O3 [brussonol]

Compound: COc1cc2c(c(OC)c1OC)-c1ccc(OC)c(=O)cc1[C@@H](NC(C)=O)CC2 [COL, colchicine]
survival rate ([18]; 0.001-0.010 mg/mL): did not affect the fly survival rate | TBARS levels [18]: elevated in the 0.0025 mg/mL and 0.005 mg/mL groups | reactive species (RS) levels [18]: increase in RS levels at concentrations of 0.0025 and 0.005 mg/mL

Compound: c1ccc([C@H]2CN3CCSC3=N2)cc1 [Levamisole]
effectiveness of inhibition of MV activity compared with ouabain [6]: more effective

Compound: Se-[(2,2-dimethyl-1,3-dioxolan-4-yl) methyl] 4-chlorobenzoselenolate [Se-DMC]
NPSH content [19]: No alteration | RS levels in paw [19]: reduced the RS levels

MIC [5]: 0.047 to 3.12 µM (≈ 0.0139 to 0.923 µg/mL)
Compound: COC(=O)Nc1nc2ccc(C(=O)c3ccccc3)cc2[nH]1 [mebendazole]

Compound: DCPIB
currents ([20]; IGR37 cells): not in IGR37 cells | currents ([20]; Panc1, MiaPaca2 and IGR39 cells): dramatic increase of currents | Ca2+ influx [21]: induces a rapid Ca2+ influx

Compound: CN[C@H](CC(C)C)C(=O)N[C@H]1C(=O)N[C@@H](CC(N)=O)C(=O)N[C@H]2C(=O)N[C@H]3C(=O)N[C@H](C(=O)N[C@H](C(=O)O)c4cc(O)cc(O)c4-c4cc3ccc4O)[C@H](O)c3ccc(c(Cl)c3)Oc3cc2cc(c3O[C@@H]2O[C@H](CO)[C@@H](O)[C@H](O)[C@H]2O[C@H]2C[C@](C)(N)[C@H](O)[C@H](C)O2)Oc2ccc(cc2Cl)[C@H]1O [vancomycin]
reduction of the MIC value in combination [22]: 4 times

inhibition at 0.1 µM [16]: 60 ± 7%
Compound: CO[C@@H]1[C@@H](OC(N)=O)[C@@H](O)[C@H](Oc2ccc3c(O)c(NC(=O)c4ccc(O)c(CC=C(C)C)c4)c(=O)oc3c2C)OC1(C)C [Novobiocin]

Compound: N-acetylcysteine [NAC]
concentration shown to inhibit biofilm formation [23]: 12.5 mg/mL

Compound: O=C1C(O)=C([C@H]2CC[C@H](c3ccc(Cl)cc3)CC2)C(=O)c2ccccc21 [atovaquone]
inhibition of SmDHODH [24]: in the nanomolar range

Source: publication PMC8551951 (Biophysical Reviews, 2021)
